Assay results published in patent US11471458B2, “Diacylglycerol acyl transferase 2 inhibitor” (Pfizer Inc., priority 2019, dated 2022).

How the values were obtained:
[1] = Intrinsic clearance in human liver microsomes; format: in vitro ADME; conditions: human liver microsome assay; 1 μM test compound, 0.806 mg/mL protein, NADPH, pH 7.4, 37° C.; mean +/− STD Dev
Description: The incubations were conducted at 37° C. […] (Sorvall RC 3C Plus, Thermo Scientific, Waltham, Mass.).

[2] = Determination of pKa (capillary electrophoresis, Analiza, Inc.); format: physicochemical; conditions: mean
human hepatocytes [3] = test: Intrinsic clearance in human hepatocytes (relay method); format: in vitro ADME; conditions: 1 μM, 20 h total incubation, mean +/− standard deviation
Description: For intrinsic clearance (CLint) measurement, hepatocyte relay method was used (Di, L., et al. 2012, Drug Metab. Dispos., 40, 1860-1865 and Di, L., et al. 2013, Drug Metab. Dispos., 41, 2018-2023). Cryopreserved human hepatocytes (Lot DCM from BioreclamationlVT) were used. Upon thawing, the hepatocytes were resuspended in Williams' medium E (custom formula number 91-5233EA; Gibco, Grand Island, N.Y.) supplemented with Hepes and Na2CO3. […] The plates were incubated at 37° C. with 95% air/5% CO2, 75% relative humidity for 4 h at 150 rpm in a humidified incubator. At time 0 and 4 h, 25 μL of hepatocyte suspension was removed from the incubation and added to 50 μL of ice-cold acetonitrile (containing metoprolol, indomethacin, and terfenadine as internal standards) to quench the reaction. The samples were centrifuged (Eppendorf, Hauppauge, N.Y.) at 3000 rpm (1439×g) for 10 min at room temperature, and 50 μL of supernatant was transferred to a clean plate, dried completely, and reconstituted before liquid chromatography/tandem mass spectrometry (LC-MS/MS) analysis. The remaining hepatocyte suspensions in the incubation plate were centrifuged (3000 rpm, 1439×g, 10 min, room temperature). The supernatant of 300 μL was transferred to a clean 24-well plate and stored at −80° C. until the next relay experiment. For the second relay experiment, the supernatant plates were warmed first to room temperature for 30 minutes, then to 37° C. for 30 min, and hepatocytes were added to the samples to give a final cell density of 0.5 million cells/mL. The plates were incubated at 37° C. for 4 h, sampled, and processed as described above. Five relays were performed to give a total incubation time of 20 h, with sampling points at (0, 4, 8, 12, 16 and 20 h). The concentrations of test compound determined at each time point by the LC-MS/MS analysis were used to calculate the intrinsic clearance.

human hepatocytes [4] = test: High throughput determination of intrinsic clearance in human hepatocytes; format: in vitro ADME; conditions: high throughput human hepatocyte assay; 0.5 million cells/mL, 1 μM test compound, 37° C.; mean +/− Std Dev
Description: The incubation was carried out at 37° C. […] The samples were centrifuged (Eppendorf, Hauppauge, N.Y.) at 3000 rpm for 5 min at 4° C.

CLint (μL/min/mg) (+/− STD Dev) [1]: <11 ± 3.5 µL/min/mg
Basic pKa (most basic pKa) [2]: 2.4
CLint (+/− Std Dev), relay hepatocyte assay (human hepatocytes [3]): 2.9 +/− 0.057 μL/min/million cells
CLint (μL/min/10^6 cells) (+/− Std Dev) (human hepatocytes [4]): <3.3 +/− 0.49 μL/min/10^6 cells
SMILES: CCOc1cccnc1Oc1cncc(-c2ncc(C(=O)NC3(CO)CCOC3)cn2)c1 (single isomer, unassigned) [WO2018033832 Ex. 6b]
